The values below come from US10568884B2, “Compounds and compositions as protein kinase inhibitors” (Array BioPharma, Inc., priority 2009, dated 2020).

By pIC50 is commonly meant the negative decadic logarithm of the IC50, by convention in mol/L.

pIC50: −log10 of the molar value. Where two headings read alike, the source gives them in different places. A value given as a limit tells only on which side of the number the result lay.

Data set [1] is described as follows: Liver Microsomal Clearance Assay (mouse). In kind it is in vitro ADME. The conditions noted are these: extraction ratio, mouse liver microsomes, 1 μM compound. The procedure: (§1) The in vitro microsomal clearance assay is designed to assess potential risks associated with hepatic metabolic stability of compounds. The test compound (1 μM) was incubated with liver microsomes (0.5 mg/mL) from different species (mouse, rat, monkey, dog and human) and NADPH (1 mM) in 100 mM potassium phosphate buffer at 37° C. At specific reaction time points (0, 5, 10 and 30 minutes), reaction aliquots were removed and reactions were terminated by addition of ice cold acetonitrile containing mass spectrometry internal standard. The samples were centrifuged and the supernatants were analyzed by LC-MS/MS. In vitro metabolic half-life (t1/2, min) and intrinsic clearance (CLint, μL/min/mg) are based on the rate and extent of metabolism of the test compound as determined by the disappearance of the parent compound from the reaction mixture. These values may be scaled to predict hepatic metabolic clearance rate (CLh, mL/min/kg) and extraction ratio (ER, expressed as a ratio of the predicted hepatic metabolic clearance to hepatic blood flow in that species). In general, compounds with high predictedCLint or ER in vitro are considered to be at high risk for exposure-limiting metabolism in vivo.

Data set [2] concerns SW620 cells. Description: SW620 Cell Viability Assay (Cell Titer Glo). In kind it is cell-based. The conditions noted are these: 10 to 0.002 μM, no MEK inhibitor. The procedure:
The present invention also includes combinations of the BRaf inhibitors disclosed in this invention with other agents. In particular, the present invention provides for combinations with MEK1/2 inhibitors. FIG. 1 illustrates that the addition of a MEK small molecule inhibitor can reverse the induced ERK signaling, cell growth and transformation caused by a Raf small molecule inhibitor.
SW620 cells were seeded in 1640 RPMI+10% FBS at a density of 1500 cells per 96-well in black walled, clear bottom tissue culture treated plates. Test compounds were serially diluted in DMSO then added to the cells (final DMSO concentration of 0.1%) and incubated at 37° C. and 5% CO2 for 4 days. To measure cell viability, cell plates were brought to room temperature, culture media was removed, and 200 μl of Cell Titer-Glo reagent (Promega, kit components mixed as per the manufacturer's protocol then diluted 1:2 with growth media) was added to each well. Plates were shaken for 5 minutes, then incubated at room temperature for 5 minutes, and the luminescence was measured (Trilux, Perkin Elmer).
(In general: ATP-based viability assays read luminescence as a measure of living cells.)

Data set [3] can be described thus: Liver Microsomal Clearance Assay (human). In kind it is in vitro ADME. To be noted: extraction ratio, human liver microsomes, 1 μM compound. The procedure:
as §1
Background: Liver microsomes are a subcellular fraction often used to study metabolism.

The subject of data set [4] is p38α MAP Kinase. The experiment in a line: A549 p38α MAP Kinase Bright-Glo Reporter Gene Assay. In kind it is cell-based. The conditions noted are these: Homo sapiens, IL-1 beta stimulated, IL-8 promoter luciferase reporter, read-out: A549 p38 RGA IC50. The procedure:
A549 cells were stably-transfected with the IL-8 promoter driven reporter, pGL3-IL8-Luc. The cells were plated at 4×10^5/ml into 384-well solid white plates (40 ul/well, 5% CD-FBS, 1×P/S, DMEM) and were incubated overnight (18-20 hours) at 37° C. Test compounds were serially diluted in DMSO, then 50 nl of test solution was added to the incubation (final DMSO concentration of 0.1%). After incubating with test compound for 30 min, cells were stimulated with 1 ng/ml IL-1 beta (10 ul of 5 ng/ml solution per well). Bright-Glo (25 ul/well) was added to measure luciferase expression after 7-8 hours of stimulation.

Data set [5] has as its system A375 melanoma cell line (B-Raf V600E). The experiment in a line: A375 Cellular Proliferation Assay (A375 CP). In kind it is cell-based. To be noted: Homo sapiens. The procedure:
A375-luc cells engineered to express luciferase are plated to 384-well white clear bottom plates as 1,500 cells/50 μl/well in DMEM containing 10% FBS. Compounds of the invention dissolved in 100% DMSO at appropriate concentrations are transferred to the cells by a robotic Pin Tool (100 nl). The cells are incubated for 2 days at […], then 25 μl of BrightGlo™ is added to each well and the plates are read by luminescence.

Where [6] appears, read: A-375, 48 h, A375-luc cells, 2 days, read-out: A375 CP IC50.
The mark [7] stands for this setting: A-375, as repeated in p38 table, read-out: A375 CP IC50.

Turning to `COC(=O)N[C@@H](C)CNc1nccc(-c2cn(C(C)C)nc2-c2cc(Cl)cc(NS(C)(=O)=O)c2F)n1` [Compound 9, Methyl N-[(2S)-1-({4-[3-(5-chloro-2-fluoro-3-methanesulfonamidophenyl)-1-(propan-2-yl)-1H-pyrazol-4-yl]pyrimidin-2-yl}amino)propan-2-yl]carbamate], the “ER Mouse” value in data set [1] is recorded as 0.48. For the same molecule, in data set [2], the “effect on cellular proliferation (negative inhibition in FIG. 1)” value is “induction in cellular proliferation”. The “ER Human” value in data set [3] is on record as <0.21. The pIC50 in data set [4] is 5.66; in data set [5] (setting [6]) it was 8.70; in data set [5] (setting [7]) it was 8.70; in data set [5] (A-375, read-out: A375 IC50), 8.70.
As for `CCCS(=O)(=O)Nc1cccc(-c2nn(C(C)C)cc2-c2ccnc(NC[C@H](C)NC(=O)OC)n2)c1F` [Compound 3, methyl N-[(2S)-1-[(4-{3-[2-fluoro-3-(propane-1-sulfonamido)phenyl]-1-(propan-2-yl)-1H-pyrazol-4-yl}pyrimidin-2-yl)amino]propan-2-yl]carbamate], the “ER Mouse” value in data set [1] is listed as 0.85. The “ER Human” value in data set [3] turned out to be 0.69. In addition, in data set [5] (setting [6]), the pIC50 is 8.70.
`CCCS(=O)(=O)Nc1ccc(F)c(-c2nn(C(C)C)cc2-c2ccnc(NC[C@H](C)NC(=O)OC)n2)c1F` [Compound 7, Methyl N-[(2S)-1-[(4-{3-[2,6-difluoro-3-(propane-1-sulfonamido)phenyl]-1-(propan-2-yl)-1H-pyrazol-4-yl}pyrimidin-2-yl)amino]propan-2-yl]carbamate]: the “ER Mouse” value in data set [1] is recorded as 0.91. Moreover, in data set [3], the “ER Human” value came out at 0.65. For the same molecule, the pIC50 in data set [5] (setting [6]) is 8.10.
`COC(=O)NC[C@H](C)Nc1nccc(-c2cn(C(C)C)nc2-c2cc(Cl)cc(NS(C)(=O)=O)c2F)n1` [Compound 32, Methyl N-[(2S)-2-({4-[3-(5-chloro-2-fluoro-3-methanesulfonamidophenyl)-1-(propan-2-yl)-1H-pyrazol-4-yl]pyrimidin-2-yl}amino)propyl]carbamate]: the pIC50 was 6.16 in data set [4], 7.51 in data set [5] (setting [6]) and 7.51 in data set [5] (setting [7]).
Turning to `CNc1nccc(-c2cn(C(C)C)nc2-c2cc(Cl)cc(NS(C)(=O)=O)c2F)n1` [Compound 29, N-(5-chloro-2-fluoro-3-{4-[2-(methylamino)pyrimidin-4-yl]-1-(propan-2-yl)-1H-pyrazol-3-yl}phenyl)methanesulfonamide], the pIC50 in data set [4] was 4.77; in data set [5] (setting [6]) it was 7.12; in data set [5] (setting [7]), 7.12; in data set [5] (A-375, read-out: A375 IC50), 7.12.
Take `COC(=O)N[C@@H](C)CNc1nccc(-c2cn(C(C)C)nc2-c2cccc(NS(C)(=O)=O)c2F)n1` [Compound 4, methyl N-[(2S)-1-({4-[3-(2-fluoro-3-methanesulfonamidophenyl)-1-(propan-2-yl)-1H-pyrazol-4-yl]pyrimidin-2-yl}amino)propan-2-yl]carbamate]: in data set [1], the “ER Mouse” value was 0.40. Further, in data set [3], the “ER Human” value is on record as <0.31. The pIC50 in data set [5] (setting [6]) is 7.48.
